Results on two compounds are retold here after US20260286297A1, “METHOD FOR PRODUCING GROUP 2 INNATE LYMPHOID CELLS” (KYOTO UNIVERSITY, priority 2023, published 2026).

Test [1] relates to HPCs derived from the line Ff-101s04. The experiment in a line: Differentiation induction from iPS cell-derived HPCs to ILC2s, different iPS cell line (Experiment 3). It is filed as cell-based, human. To be noted: HPCs from iPS line Ff-101s04; Condition 3 (3 μM Senexin A), Condition 4 (100 nM CCT-251921).
For test [2], the system named is hematopoietic precursor cells (derived from iPS cell line 1231A2). The test can be described thus: Differentiation induction from iPS cell-derived HPCs to ILC2s, flow cytometry (Experiments 2 and 4). To be noted: line 1231A2 HPCs; for induction of ILC2-like cell populations (lineage marker-negative, GATA3-expressing, capacity to produce IL-13): CDK8 inhibitor in medium B Day 6-12 (Senexin A 3 μM; CCT-251921 100 nM), flow cytometry after 12 days; for differentiation induction into ILC2-like cells containing IL-10-producing cells: Condition 2 plus CDK8 inhibitor in medium B Day 6-12 (Compounds 1-3 1 μM, Compound 4 10 μM). Type of test: cell-based, human. The procedure:
The HPCs prepared from the iPS cells in Experiment 1 were cultured to be differentiation-induced into ILC2s. Specifically, 2500 to 20000 HPC stock cells prepared from the line 1231A2 were seeded in a 96-well plate (Corning, 3799 or Iwaki, 3860-096) coated with 2.5 μg/mL Fc-DLL4 and 2.5 μg/mL RetroNectin™ (Day 0) and cultured at 37° C. in a 5% CO2 atmosphere under the medium conditions shown below for 12 days to be differentiation-induced. In the differentiation induction culture for 12 days, 100 μL of medium was added on Day 3, followed by medium replacement on Day 6 and Day 9. If the cells in each culture well are confluent after the medium replacement on Day 6 and Day 9, the cells in the well were suspended, 2-fold diluted, and reseeded in a new 96-well plate. In the cases of Conditions 2 to 4, IL-2 (BioLegend, 589108 or PeproTech, 200-02) was added to medium A at 200 U/mL. In the case of Condition 3, Senexin A (Selleck, S8520) was added to medium B at 3 μM as CDK8 inhibitor. In the case of Condition 4, CCT-251921 (MedChemExpress, HY-19984) was added to medium B at 100 nM as CDK8 inhibitor. The differentiated cells cultured as described above were stimulated at 37° C. in a 5% CO2 atmosphere for 4 to 6 hours using the following: • IL-1β (PeproTech, 200-01B), final concentration: 10 ng/ml. • IL-2, final concentration: 20 ng/ml. • IL-7, final concentration: 50 ng/ml. • IL-23 (BioLegend, 574106), final concentration: 20 ng/ml • IL-25 (IL-17E) (PeproTech, 200-24), final concentration: 20 ng/ml • eBioscience™ Cell Stimulation Cocktail (plus Protein transport inhibitor) (Thermo Fisher Scientific, 00-4975-03) The stimulated cells were subsequently stained and analyzed with an LSRFortessa™ Cell Analyzer (BD Biosciences) by flow cytometry. […] The present experiment confirmed the differentiation induction into ILC2s using multiple CDK8 inhibitors having different structures.

Test [3] has as its system iPS cell-derived HPCs differentiation culture. The test can be described thus: Concentrations of cytokines in differentiation culture supernatant containing iPS cell-derived ILC2s (Experiment 6). Type of test: cell-based, human. The settings on record: Day 12 culture supernatant; Condition 3 versus Conditions 1 and 2. The source says:
The culture supernatant of Day 12 of the culture was collected that was differentiation-induced under “Condition 1”, “Condition 2”, and “Condition 3” described in Experiment 2, followed by the quantification of concentrations of IL-10, IL-5, and amphiregulin in the culture supernatant with the following kits, respectively. Amphiregulin is a cytokine that plays a central role in the capacity of ILC2s to repair tissue. It is conceivable that ILC2s having the capacity to repair tissue were obtained in the case where amphiregulin increased in concentration. • IL-10: Human IL-10 immunoassay kit (PerkinElmer, AL218C) • IL-5: Human IL-5 immunoassay kit (PerkinElmer, AL267C) • Amphiregulin: Human Amphiregulin Quantikine ELISA Kit (R&D Systems, DAR00)
IL-10 and IL-5 were measured with an Envision (Revvity). Amphiregulin was measured with a Powerscan4 (DS pharma biomedical Co., LTD.).

For test [4], the system named is human cord blood-derived CD34-positive cells. The experiment in a line: Differentiation induction from human cord blood-derived CD34-positive HPCs to ILC2s (Experiment 5). Type of test: cell-based. The settings on record: Condition 3 (3 μM Senexin A), flow cytometry on Day 19. The text has this:
In order to ascertain the versatility of the method for differentiation induction in Experiment 2, the present experiment confirmed the differentiation induction from HPCs derived from the human body to ILC2s. Specifically, ILC2s were differentiation-induced by culturing purchased human cord blood-derived CD34-positive cells (Lonza, 2C-101) with the methods of Condition 1, Condition 2, and Condition 3 in Experiment 2. In the present experiment, the medium was also replaced with the same medium as on Days 6 to 12 on Day 12 and Day 15 of the culture, and the cells in each culture well were 2-fold diluted and reseeded in the case where the cells in the culture well were confluent.

Regarding `Cn1ncc2cc(-c3cnc(N)c(Cl)c3N3CCC4(CCNC4=O)CC3)ccc21` [CCT-251921], the “differentiation induction of ILC2-like cells containing IL-10-producing cells” value in test [1] is reported as “ILC2-like cells containing IL-10-producing cells were differentiation-induced”. In addition, in test [2], the “induction of ILC2-like cell populations (lineage marker-negative, GATA3-expressing, capacity to produce IL-13)” value is “ILC2-like cell populations were induced” and the “differentiation induction into ILC2-like cells containing IL-10-producing cells” value is “observed”.

In the case of `N#Cc1ccc2ncnc(NCCc3ccccc3)c2c1` [Senexin A], in test [3], the “production of IL-5 in the culture supernatant” value is on record as “enhancement of production”, the “production of IL-10 in the culture supernatant” value was “enhancement of production” and the “production of amphiregulin in the culture supernatant” value is recorded as “enhancement of production”. Also, in test [1], the “differentiation induction of ILC2-like cells containing IL-10-producing cells” value is on record as “ILC2-like cells containing IL-10-producing cells were differentiation-induced”. Also, in test [2], the “induction of ILC2-like cell populations (lineage marker-negative, GATA3-expressing, capacity to produce IL-13)” value was “ILC2-like cell populations were induced” and the “differentiation induction into ILC2-like cells containing IL-10-producing cells” value is “observed”. Besides, the “capacity of the induced ILC2-like cells to produce IL-10” value in test [2] (Condition 3, 3 μM Senexin A in medium B Day 6-12) is recorded as “had the capacity to produce IL-10”. The “differentiation induction of ILC2-like cells containing IL-10-producing cells” value in test [4] was “ILC2-like cells containing IL-10-producing cells were differentiation-induced”.
